According to patent US20010007020A1, “ANTIBODIES THAT BIND TO THE NIDOGEN-BINDING DOMAIN OF LAMININ, THEIR PRODUCTION AND USE” (HOECHST AKTIENGESELLSCHAFT, priority 1997, published 2001):

Legend:
[1] = molecular target: laminin/nidogen binding (radioactively labeled nidogen to laminin P1-coated tubes); assay: coated-tube inhibition assay, sequential inhibition; set-up: species or system human
Protocol: (§1) The inhibitory activity of the affinity-purified antibodies can be identified by means of a coated-tube assay which measures the binding of radioactively labeled nidogen to (human placental) laminin P1-coated tubes in the presence of the antibodies.
(§2) Recombinantly produced human nidogen (35 μg, for description of the clone and culturing and purification conditions, see Mayer, U. et al. (1995) Eur. J. Biochem. 227:681-686) was dissolved in 250 μl of PBS, and 0.405 mCi (=15 Mbq) of Na iodide (^125I) solution (=1.55 μl, Nordion Europe), 10 μl of 0.5 M Na phosphate, pH 7.4, and 40 μg of chloramine T (N-chloro-4-toluenesulfonamide sodium salt, Merck) in 100 μl of 0.05 M Na phosphate, pH 7.4, were added to the solution. The reaction took place for 60 seconds at room temperature and was stopped by adding a solution of 40 μg of Na metabisulfite (Riedel-de-Haen) in 100 μl of 0.05 M Na phosphate, pH 7.4. This addition was made in at most 30 seconds and 900 μl of 1% BSA (Sigma) in PBS were then added to the mixture. Free radioactivity and excess salts were separated off by means of molecular sieve chromatography using a PD 10 column (Pharmacia). The iodinated nidogen, which was eluted in PBS, was pooled and diluted with 1% BSA/0.05 M Na phosphate/0.01% Na azide, pH 7.4, such that a concentration of 50 ng/ml was obtained. […]
Inhibition assay using “laminin-mimetic” structures (sequential inhibition) 200 μl of iodinated nidogen (approx. 10 ng, approx. 40,000 counts per min) and 200 μl of the inhibitor (e.g. peptides which can be derived from the laminin γ1 III 4 domain) or standards (laminin γ1 III 3-5) were shaken in a reaction vessel at room temperature. […] Finally, the solution was tipped out and the tubes were washed twice with 1 ml of PBS/0.04% Tween 20, after which the bound radioactivity (nidogen) was measured in a gamma counter. The quantity of bound nidogen in the solutions containing inhibitor was related to that of the nidogen when no inhibitor was added. […]

[2] = molecular target: laminin/nidogen binding (radioactively labeled nidogen to laminin P1-coated tubes); assay: coated-tube inhibition assay, simultaneous inhibition; set-up: species or system human; conditions: simultaneous assay type
Protocol: as §1, §2
Target sequence in this assay (P11047 773-934 limits assumed, one chain of several): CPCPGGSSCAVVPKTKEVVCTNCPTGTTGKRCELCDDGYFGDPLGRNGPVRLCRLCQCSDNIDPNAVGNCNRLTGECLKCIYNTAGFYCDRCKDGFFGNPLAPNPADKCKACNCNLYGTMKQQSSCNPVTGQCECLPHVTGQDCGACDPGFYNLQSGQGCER

[3] = system: laminin P1; assay: BIAcore binding kinetics on immobilized laminin P1; conditions: 20 μg/ml; matrix with 4000 RU laminin P1
Chain of laminin P1 (P11047 773-934 limits assumed): as the sequence (P11047 773-934 limits assumed, one chain of several) above
Description: Biospecific interactions can be monitored on-line using the BIAcore® system from Pharmacia Biosensor. The principle of the measurement is based on an optical phenomenon (surface plasmon resonance) which is affected by the mass which is bound on a gold film. Expressed in simple terms, the system is miniaturized affinity chromatography on a gold sensor surface. The quantity of specifically bound ligand can be depicted visually in the form of a resonance signal (Chaiken, I. et al. (1992) Anal. Biochem. 201:197-201; Karisson, R. et al. (1992) in: Structure of Antigens; (Ed.: van Regenmortel). pp. 127-148; CRC Press, Boca Raton, Fla.)
Laminin P1 was immobilized, at a concentration of 200 μg/ml in 10 mM Na acetate, pH 4.0, on the sensor chip in accordance with the instructions in the user manual. A matrix containing 4000 RU of bound laminin P1 is obtained. A double impulse of in each case 4 μl of 100 mM HCl can be carried out in order to regenerate the affinity matrix.
The fact that it was still not possible to observe any transition to the equilibrium state after 1400 seconds can be an expression of the fact that the specific peptide sequence of laminin P1 which is responsible for binding nidogen was readily available to the antibodies. The antibodies bound to this sequence irrespective of whether it was in the biologically active conformation or in a different conformation. […]

[4] = sequential assay type, read-out: IC50% inhibition of laminin/nidogen binding

DNIDPNAVGNLKCIYNTAGFYCDR [(2), peptide used for immunization]
IC50 [1, 4]: 20 µM | IC50 [2]: 20 µM

DNIDPNAVGNL [(1), peptide used for immunization]
IC50 ([1]; in the assay described here, shortened incubation times, variant not stated, read-out: IC50%): 60 µM | IC50 [1, 4]: 60 µM | IC50 [2]: 60 µM

B1: nidogen: recombinantly produced human nidogen, 160 kDa glycoprotein (protein, UniProt P14543 29-1247, looked up)
Nidogen-1: LSRQELFPFGPGQGDLELEDGDDFVSPALELSGALRFYDRSDIDAVYVTTNGIIATSEPPAKESHPGLFPPTFGAVAPFLADLDTTDGLGKVYYREDLSPSITQRAAECVHRGFPEISFQPSSAVVVTWESVAPYQGPSRDPDQKGKRNTFQAVLASSDSSSYAIFLYPEDGLQFHTTFSKKENNQVPAVVAFSQGSVGFLWKSNGAYNIFANDRESVENLAKSSNSGQQGVWVFEIGSPATTNGVVPADVILGTEDGAEYDDEDEDYDLATTRLGLEDVGTTPFSYKALRRGGADTYSVPSVLSPRRAATERPLGPPTERTRSFQLAVETFHQQHPQVIDVDEVEETGVVFSYNTDSRQTCANNRHQCSVHAECRDYATGFCCSCVAGYTGNGRQCVAEGSPQRVNGKVKGRIFVGSSQVPIVFENTDLHSYVVMNHGRSYTAISTIPETVGYSLLPLAPVGGIIGWMFAVEQDGFKNGFSITGGEFTRQAEVTFVGHPGNLVIKQRFSGIDEHGHLTIDTELEGRVPQIPFGSSVHIEPYTELYHYSTSVITSSSTREYTVTEPERDGASPSRIYTYQWRQTITFQECVHDDSRPALPSTQQLSVDSVFVLYNQEEKILRYALSNSIGPVREGSPDALQNPCYIGTHGCDTNAACRPGPRTQFTCECSIGFRGDGRTCYDIDECSEQPSVCGSHTICNNHPGTFRCECVEGYQFSDEGTCVAVVDQRPINYCETGLHNCDIPQRAQCIYTGGSSYTCSCLPGFSGDGQACQDVDECQPSRCHPDAFCYNTPGSFTCQCKPGYQGDGFRCVPGEVEKTRCQHEREHILGAAGATDPQRPIPPGLFVPECDAHGHYAPTQCHGSTGYCWCVDRDGREVEGTRTRPGMTPPCLSTVAPPIHQGPAVPTAVIPLPPGTHLLFAQTGKIERLPLEGNTMRKTEAKAFLHVPAKVIIGLAFDCVDKMVYWTDITEPSIGRASLHGGEPTTIIRQDLGSPEGIAVDHLGRNIFWTDSNLDRIEVAKLDGTQRRVLFETDLVNPRGIVTDSVRGNLYWTDWNRDNPKIETSYMDGTNRRILVQDDLGLPNGLTFDAFSSQLCWVDAGTNRAECLNPSQPSRRKALEGLQYPFAVTSYGKNLYFTDWKMNSVVALDLAISKETDAFQPHKQTRLYGITTALSQCPQGHNYCSVNNGGCTHLCLATPGSRTCRCPDNTLGVDCIEQK
bound amount at transition to the saturation phase [3]: 600 RU
